Holding throughout (experiment): NCI anticancer screen, dose series, 48 h
For test [1], the system named is KM12 colon.
Test [2] relates to OVCAR-8 ovarian.
For test [3], the system named is BT-549 breast.
Test [4] relates to SR leukemia.
In test [5] the test system is M14 melanoma.
The subject of test [6] is MALME-3M melanoma.
Test [7] deals with A498 renal.
For test [8], the system named is CCRF-CEM leukemia.
Test [9] has as its system COLO 205 colon.
For test [10], the system named is HCC-2998 colon.

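All cell lines were grown in 96-well plates and treated with compound for 48 hours. Abbreviation: GI50, concentration required for 50% inhibition of growth. TGI denotes the concentration required for complete inhibition of growth.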 Bounds are passed on as bounds.

Take `COC(=O)[C@](C)(Cc1ccccc1)NC(=O)[C@@H](C)N1[C@@H](c2ccccc2)COC1(C)C`: the TGI in test [1], in test [2], in test [3], in [4], in test [5] and in test [6] was over 100 µM each time. The TGI in [7] is over 100 µM; in test [8], over 100 µM; in test [9], 52.2 µM.
Take `C=CC(OC(C)=O)c1ccc(OC(C)=O)cc1` (stereo not drawn): the TGI in [1] was 18.6 µM; in test [2], 11.7 µM; in test [3] it was 23.9 µM; in test [10], 18.6 µM; in test [4], 18.5 µM; in test [5], 22.9 µM. Besides, the TGI is 11.2 µM in test [6], 25.3 µM in [7] and 12.9 µM in test [9].
In the case of `COc1cc2c(cc1OC)C(=O)/C(=C/c1ccc(O)cc1)CC2`, the TGI in test [1], in test [2], in test [3], in test [10], in test [4] and in [5] was over 10 µM each time. In addition, the TGI in test [6], in [8] and in [9] was over 10 µM in each case.
Take `Cc1cc2nc(-c3c(N)ncc(C#N)c3-c3ccc(Cl)cc3)[nH]c2cc1C`: the GI50 in [1] was 14.8 µM; in test [2], 4.53 µM; in test [3], 37.6 µM; in test [10], 20.9 µM; in [4], 28.7 µM; in test [6], 14.5 µM. Also, the GI50 in test [7] is 11.8 µM; in test [8], 24.6 µM; in test [9], 6.24 µM. Also, the TGI in [1] was over 100 µM; in test [2] it was 29.6 µM; in [3], over 100 µM; in [10], over 100 µM; in test [4], over 100 µM; in test [6], 78.8 µM. Also, the TGI in [7] was 59.2 µM; in [8], over 100 µM; in [9], 83.4 µM.
Regarding `COC(=O)/C=C1\C(=O)C=C2[C@@H]3C[C@H]4C[C@H](CC[C@@]4(C)N21)C3(C)NC(C)=O` (stereo partly drawn), the TGI in [1] is 33.2 µM; in test [2] it was 51.2 µM; in test [3] it was 24.8 µM; in [10] it was over 64.9 µM; in test [4] it was 99.7 µM; in [5], 26.4 µM. The TGI is 38.9 µM in test [7], 34.7 µM in test [8] and over 36.8 µM in [9].
`CCOC(=O)CCC(NC(=O)OCc1ccccc1)C(=O)NC(CCC(=O)OCC)C(=O)NC(CCC(=O)OCC)C(=O)NNC(=O)OC(C)(C)C` (stereo not drawn): the TGI in test [2], in test [3], in test [10], in test [4], in [5] and in [6] was over 100 µM in each case. In addition, the TGI in test [7], in test [8] and in [9] was over 100 µM throughout.
As to `CCn1c(=O)c2c3ccc(OC(C)=O)cc3[nH]c2c2ccc(OC(C)=O)cc21`, the TGI in [1] is over 100 µM; in test [2] it was over 100 µM; in test [3], over 100 µM; in [10], 54.4 µM; in [4], over 100 µM; in test [5], over 100 µM. Also, the TGI in test [6], in [8] and in test [9] was over 100 µM throughout.
As for `COC1(OC)C=CC(=O)C=C1`, the TGI was 25.8 µM in test [1]; 7.61 µM in test [2]; 14.2 µM in test [3]; 15.4 µM in test [10]; over 100 µM in test [4]; 11.5 µM in test [5]. Moreover, the figures for the TGI in [7], in test [8] and in test [9] were over 91.2 µM, 22.4 µM and 28.1 µM, respectively.
With `COc1ccccc1NC(=S)N/N=C/c1ccccn1`, the TGI in test [1] is over 31.6 µM; in test [2], 12.9 µM; in test [3] it was 77 µM; in test [10], 32.9 µM; in test [5], 7.69 µM; in test [6], over 24.3 µM. The TGI is 5.04 µM in [7], over 23.1 µM in test [8] and over 16 µM in test [9].
On to `COc1cc(S(=O)(=O)Nc2ccc(-c3csc(/N=C\c4ccccc4)n3)cc2)ccc1Cl`, for which the TGI in [1], in test [2], in test [3], in [4], in test [5] and in test [6] was over 100 µM each time. Moreover, the TGI in test [7], in test [8] and in test [9] was over 100 µM in each case.
Take `NNC(=O)Cn1ccnn1`: the TGI in test [1], in test [2], in test [3], in test [10], in [4] and in [5] was over 100 µM throughout. The TGI in [6], in [8] and in test [9] was over 100 µM each time.
For the compound `COc1cccc(NC(=O)CC(=O)N2N=C(C)C(N=Nc3ccc(C(=O)O)cc3)C2=O)c1` (stereo not drawn), the TGI in [1], in test [2], in test [3], in test [10], in [4] and in [5] was over 100 µM each time. For the same compound, the TGI in [6], in test [8] and in test [9] was over 100 µM in each case.
With `COc1ccc(C2SCC(=O)N2NC(=O)C(C)Oc2ccc(Cl)cc2Cl)cc1` (stereo not drawn), the TGI was over 100 µM in test [1]; over 100 µM in test [2]; 52.8 µM in test [3]; over 100 µM in test [10]; 17.3 µM in test [4]; over 100 µM in test [5]. In addition, the TGI in [7] is 76.4 µM; in test [9] it was over 100 µM.
Consider `N#C/C(C(=O)Nc1ccccc1)=C(/N)N1CCCCC1`, for which the TGI in test [1], in test [2], in test [3], in test [10], in test [4] and in [5] was over 100 µM each time. In addition, the TGI in [8] and in test [9] was over 100 µM each time.

The record behind these values is PubChem BioAssay (NCI).
